Values quoted from earlier work in patent US6159964A, “Vitronectin receptor antagonists” (SmithKline Beecham Corporation, priority 1999, dated 2000).

Tested on: fibrinogen receptor
Conditions: template of WO 93/08174

N=C(N)c1ccc(NC(=O)c2ccc3c(c2)CN(CCc2ccccc2)C(=O)C(CC(=O)O)N3)cc1 (racemic) [(R,S)-7-[[[4-(aminoiminomethyl)phenyl]amino]carbonyl]-4-(2-phenylethyl)-1,3,4,5-tetrahydro-3-oxo-2H-1,4-benzodiazepine-2-acetic acid]
fibrinogen antagonist activity (in words): potent and selective fibrinogen antagonist
